Test results: US20140363526A1, “SYNERGISTIC FORMULATION OF PLANT EXTRACTS FOR HEPATIC AND ADRENAL DISORDERS” (Bioved Pharmaceuticals, Inc., priority 2013, published 2014)

Test system: dexamethasone induced triglyceride synthesis in human subcutaneous pre-adipocytes
Assay: Inhibition of long term dexamethasone induced triglyceride synthesis
Assay type: cell-based
Details: single extracts 1 μg/ml, combined formulation 10 μg/ml, vs DMSO control
Protocol: The study was conducted at a reputed US Contract Research Lab which has access to pooled human subcutaneous pre-adipocytes (female, average age 54.2, average BMI 27.9) from twelve different donors. These were cultured in 96-well plates in DMEM/Ham's F-12 (1:1, v/v) with 10% fetal bovine serum and differentiated according to a standard protocol. The next day, the pre-adipocyte medium was removed and replaced with differentiation medium; namely insulin, dexamethasone and IBMX (3-isobutyl-1-methylxanthine, a competitive nonselective phosphodiesterase inhibitor and a nonselective adenosine receptor antagonist. The media containing the formulations were prepared by different methods (individually and combined). After seven days, 90 μl of differentiation medium was removed and replaced with 120 μl of adipocyte medium (containing dexamethasone and insulin in DMEM). After seven more days, cells were assayed for cytotoxicity and cellular triglyceride content.
Cellular triglycerides were measured by a two-step procedure. […] After 15 minutes, the optical density of each well of the new plate was measured at 540 nm. The absorbance values of the unknown samples were converted to glycerol concentrations by correlation to the glycerol concentration standards using the generated linear regression equation.

TNF-a
inhibition of TG synthesis: significantly reduced TG synthesis
